This note sets out measurements from ChEMBL document CHEMBL5390228, “Unnatural Endotype B PPAPs as Novel Compounds with Activity against Mycobacterium tuberculosis” (J Med Chem, 2023).

Activity calls are given as the source filed them. The calls are words filed in the database; no cut-off is given here. Bounds are passed on as bounds.

The subject of data set [1] is HepG2. The experiment in a line: Cytotoxicity against human HepG2 cells assessed as fold reduction in cell viability upto 20 uM incubated for 96 hrs by alamarBlue Cell Viability assay relative to control. It is filed as toxicity, cell-based. As to conditions: hepg2, 96 h.
For the next data set, the system named is HepaRG. The experiment in a line: Cytotoxicity against human HepaRG cells assessed as reduction in cell viability at 60 uM incubated for 24 hrs by WST-1 assay. The data set is classed as toxicity, cell-based. On the technique in general: Formazan colour is commonly taken as a measure of viable cells.
Data set [2] addresses T1, Nuclear receptor subfamily 1 group I member 2 (Homo sapiens, UniProt O75469).
T1 sequence (O75469 whole entry): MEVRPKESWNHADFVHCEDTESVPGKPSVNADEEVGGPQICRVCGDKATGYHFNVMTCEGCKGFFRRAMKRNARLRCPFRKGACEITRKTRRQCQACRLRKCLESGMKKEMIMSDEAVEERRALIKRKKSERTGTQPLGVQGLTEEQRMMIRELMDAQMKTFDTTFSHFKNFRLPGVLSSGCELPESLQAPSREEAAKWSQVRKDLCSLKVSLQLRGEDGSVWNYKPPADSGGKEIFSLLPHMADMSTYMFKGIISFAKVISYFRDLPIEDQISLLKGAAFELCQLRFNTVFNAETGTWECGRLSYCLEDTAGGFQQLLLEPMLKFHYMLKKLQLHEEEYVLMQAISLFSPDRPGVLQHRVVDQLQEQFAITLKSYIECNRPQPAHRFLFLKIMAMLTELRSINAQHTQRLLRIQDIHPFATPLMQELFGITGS
In words: Activation of GAL4-DBD fused human PXR LBD expressed in human HepG2 cells co-expressing GAL4-responsive UAS-driven firefly luciferase and renilla luciferase assessed as increase in luciferase activity at 1 to 20 uM incubated for 24 hrs by Dual-Glo luciferase assay relative to control. It is filed as cell-based. As to conditions: hepg2, 24 h, dose 1-20 µM.

Data set [3] is described as follows: Induction of CYP3A4 protein expression in human HepaRG cells at 1 to 20 uM incubated for 24 hrs by targeted mass spectrometry-based immunoassay.
Data set [4] addresses T1, Nuclear receptor subfamily 1 group I member 2. In words: Transactivation of human PXR in human HepG2 cells coexpressing firefly luciferase gene under control of CYP3A4 promoter and renilla luciferase assessed as increase in luciferase activity at 1 to 20 uM incubated for 48 hrs by Dual-Glo luciferase assay. The following applies: hepg2, 48 h.
Data set [5] has as its system Mycobacterium tuberculosis. In words: Antimicrobial activity in Mycobacterium tuberculosis H37Rv ATCC 27294 assessed as reduction in metabolic activity by measuring incorporation radioactively labeled [3H] uracil into live bacilli preincubated for 72 hrs followed by [3H] uracil addition and measured after 18 hrs by beta-counter analysis. The data set is classed as functional, organism-based. As to conditions: for Activity: time 90.0 hrs.

The next data set relates to A549. The experiment in a line: Cytotoxicity against human A549 cells assessed as reduction in cell viability at 2.5 to 75 uM incubated for 48 hrs by resazurin reagent based fluorescence assay. As to conditions: a549, 48 h, dose 2.5-75 µM. The data set is classed as toxicity.
Data set [6] has as its system Mycobacterium tuberculosis. The experiment in a line: Antimicrobial activity in Mycobacterium tuberculosis H37Rv ATCC 27294 infected in human Primary macrophage cells assessed as reduction in intracellular growth of bacteria incubated for 4 days by CFU assay. The data set is classed as functional, organism-based. As to conditions: H37Rv ATCC 27294, Primary macrophage, 96 h.

Data set [7] concerns HepG2. In words: Cytotoxicity against human HepG2 cells assessed as reduction in cell viability at 10 to 20 uM incubated for 48 hrs by WST-1 assay. The following applies: hepg2, 48 h, dose 10-20 µM. It is filed as toxicity, cell-based.
Data set [8] deals with Mycobacterium tuberculosis. In words: Antimicrobial activity in Mycobacterium tuberculosis expressing mCherry infected in human Primary macrophage cells assessed as reduction in number of intracellular bacilli at 7.5 uM by DAPI staining based Confocal laser scanning microscopy. The data set is classed as functional, organism-based.
Data set [9] in a line: Induction of CYP3A4 mRNA expression in human HepaRG cells at 1 to 20 uM incubated for 24 hrs by RT-qPCR analysis. In general terms: In qPCR the cycle at which signal appears reflects the starting amount.
Another data set has as its system PBMC. The experiment in a line: Cytotoxicity against human PBMC cells assessed as reduction in cell viability at 2.5 to 75 uM incubated for 18 hrs by PrestoBlue reagent based fluorescence assay. The data set is classed as toxicity. The following applies: dose 2.5-75 µM.
The target of data set [10] is T2, Cytochrome P450 2C8 (Homo sapiens, UniProt P10632).
T2 sequence (P10632 whole entry): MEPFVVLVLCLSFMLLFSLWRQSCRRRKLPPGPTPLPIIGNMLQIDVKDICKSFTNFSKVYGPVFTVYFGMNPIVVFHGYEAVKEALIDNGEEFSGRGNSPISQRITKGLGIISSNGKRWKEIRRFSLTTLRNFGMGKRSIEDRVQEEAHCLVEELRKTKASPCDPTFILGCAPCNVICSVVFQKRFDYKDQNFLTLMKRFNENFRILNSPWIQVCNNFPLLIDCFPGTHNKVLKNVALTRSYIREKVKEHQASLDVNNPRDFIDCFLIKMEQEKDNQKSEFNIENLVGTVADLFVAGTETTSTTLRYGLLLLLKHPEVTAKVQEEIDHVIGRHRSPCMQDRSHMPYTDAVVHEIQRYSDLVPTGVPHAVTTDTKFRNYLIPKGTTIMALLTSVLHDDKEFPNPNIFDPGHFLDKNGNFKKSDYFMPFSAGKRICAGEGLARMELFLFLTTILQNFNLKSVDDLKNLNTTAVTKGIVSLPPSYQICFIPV
The experiment in a line: Induction of CYP2C8 activity in human HepaRG cells at 5 to 10 uM incubated for 96 hrs by liquid chromatography with tandem mass spectrometry-based substrate cocktail assay. It is filed as ADME, cell-based. The following applies: dose 5-10 µM.

The target in the next data set is T3, Cytochrome P450 2B6 (Homo sapiens, UniProt P20813).
T3 sequence (P20813 whole entry): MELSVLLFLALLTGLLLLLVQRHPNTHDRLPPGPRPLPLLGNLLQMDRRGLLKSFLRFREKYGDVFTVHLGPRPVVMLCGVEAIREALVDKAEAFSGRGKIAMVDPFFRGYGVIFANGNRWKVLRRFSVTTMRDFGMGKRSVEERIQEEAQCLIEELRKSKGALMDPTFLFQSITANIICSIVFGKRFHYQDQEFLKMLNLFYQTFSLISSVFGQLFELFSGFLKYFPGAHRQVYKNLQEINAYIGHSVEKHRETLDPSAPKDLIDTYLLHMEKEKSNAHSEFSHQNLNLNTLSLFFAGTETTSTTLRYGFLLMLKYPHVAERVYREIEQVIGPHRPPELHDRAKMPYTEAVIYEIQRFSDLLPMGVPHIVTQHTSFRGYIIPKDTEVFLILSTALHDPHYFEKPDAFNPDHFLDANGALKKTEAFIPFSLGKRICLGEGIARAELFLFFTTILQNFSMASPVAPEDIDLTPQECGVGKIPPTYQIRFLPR
In words: Induction of CYP2B6 activity in human HepaRG cells at 5 to 10 uM incubated for 96 hrs by liquid chromatography with tandem mass spectrometry-based substrate cocktail assay. It is filed as ADME, cell-based. As to conditions: dose 5-10 µM.

A further data set deals with Cytochrome P450 2C9 (Homo sapiens, UniProt P11712). The experiment in a line: Induction of CYP2C9 activity in human HepaRG cells at 5 to 10 uM incubated for 96 hrs by liquid chromatography with tandem mass spectrometry-based substrate cocktail assay. It is filed as ADME, cell-based. The following applies: dose 5-10 µM.
Cytochrome P450 2C9, sequence (P11712 whole entry): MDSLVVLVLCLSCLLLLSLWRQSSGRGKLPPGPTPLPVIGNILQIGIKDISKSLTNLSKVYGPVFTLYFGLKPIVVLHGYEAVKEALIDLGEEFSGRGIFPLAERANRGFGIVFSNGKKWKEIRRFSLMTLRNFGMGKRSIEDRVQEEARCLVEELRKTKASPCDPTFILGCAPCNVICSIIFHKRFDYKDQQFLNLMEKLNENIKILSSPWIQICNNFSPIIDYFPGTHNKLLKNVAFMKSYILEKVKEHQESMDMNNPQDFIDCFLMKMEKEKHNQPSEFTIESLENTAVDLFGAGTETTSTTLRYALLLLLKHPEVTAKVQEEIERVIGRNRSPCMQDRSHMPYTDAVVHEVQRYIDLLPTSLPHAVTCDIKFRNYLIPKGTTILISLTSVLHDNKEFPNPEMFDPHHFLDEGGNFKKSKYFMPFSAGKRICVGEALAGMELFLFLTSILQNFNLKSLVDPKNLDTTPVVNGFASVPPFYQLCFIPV
Another data set deals with Macrophage. In words: Cytotoxicity against human Primary macrophage cells assessed as reduction in cell viability at 2.5 to 75 uM incubated for 18 hrs by PrestoBlue reagent based fluorescence assay. It is filed as toxicity. The following applies: dose 2.5-75 µM.
Another data set concerns the target Cytochrome P450 3A4 (Homo sapiens, UniProt P08684). In words: Induction of CYP3A4 activity in human HepaRG cells at 5 to 10 uM incubated for 96 hrs by liquid chromatography with tandem mass spectrometry-based substrate cocktail assay. It is filed as ADME, cell-based. The following applies: dose 5-10 µM.
Another data set addresses Cytochrome P450 2C19 (Homo sapiens, UniProt P33261). In words: Induction of CYP2C19 activity in human HepaRG cells at 5 to 10 uM incubated for 96 hrs by liquid chromatography with tandem mass spectrometry-based substrate cocktail assay. The data set is classed as ADME, cell-based. The following applies: dose 5-10 µM.
The target in a further data set is T4, Cytochrome P450 1A2 (Homo sapiens, UniProt P05177).
T4 sequence (P05177 whole entry): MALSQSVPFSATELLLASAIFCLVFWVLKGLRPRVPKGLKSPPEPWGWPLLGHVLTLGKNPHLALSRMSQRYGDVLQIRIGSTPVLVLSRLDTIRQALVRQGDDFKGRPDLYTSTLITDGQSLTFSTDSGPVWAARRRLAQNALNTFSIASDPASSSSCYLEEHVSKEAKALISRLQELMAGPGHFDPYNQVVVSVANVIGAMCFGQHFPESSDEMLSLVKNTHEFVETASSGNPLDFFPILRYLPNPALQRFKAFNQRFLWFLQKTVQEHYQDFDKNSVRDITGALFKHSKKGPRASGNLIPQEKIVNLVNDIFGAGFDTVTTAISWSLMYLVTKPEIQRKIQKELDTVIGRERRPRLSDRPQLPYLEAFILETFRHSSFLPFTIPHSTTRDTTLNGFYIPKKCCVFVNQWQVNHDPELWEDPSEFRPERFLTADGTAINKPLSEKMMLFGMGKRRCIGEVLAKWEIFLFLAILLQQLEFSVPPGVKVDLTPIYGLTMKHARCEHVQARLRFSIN
In words: Induction of CYP1A2 activity in human HepaRG cells at 5 to 10 uM incubated for 96 hrs by liquid chromatography with tandem mass spectrometry-based substrate cocktail assay. As to conditions: dose 5-10 µM. It is filed as ADME, cell-based.

In data set [11] the target is T2, Cytochrome P450 2C8. The experiment in a line: Induction of CYP2C8 activity in human HepaRG cells at 10 uM incubated for 96 hrs by liquid chromatography with tandem mass spectrometry-based substrate cocktail assay. The data set is classed as ADME, cell-based.

Cytochrome P450 2C19, sequence (P33261 whole entry): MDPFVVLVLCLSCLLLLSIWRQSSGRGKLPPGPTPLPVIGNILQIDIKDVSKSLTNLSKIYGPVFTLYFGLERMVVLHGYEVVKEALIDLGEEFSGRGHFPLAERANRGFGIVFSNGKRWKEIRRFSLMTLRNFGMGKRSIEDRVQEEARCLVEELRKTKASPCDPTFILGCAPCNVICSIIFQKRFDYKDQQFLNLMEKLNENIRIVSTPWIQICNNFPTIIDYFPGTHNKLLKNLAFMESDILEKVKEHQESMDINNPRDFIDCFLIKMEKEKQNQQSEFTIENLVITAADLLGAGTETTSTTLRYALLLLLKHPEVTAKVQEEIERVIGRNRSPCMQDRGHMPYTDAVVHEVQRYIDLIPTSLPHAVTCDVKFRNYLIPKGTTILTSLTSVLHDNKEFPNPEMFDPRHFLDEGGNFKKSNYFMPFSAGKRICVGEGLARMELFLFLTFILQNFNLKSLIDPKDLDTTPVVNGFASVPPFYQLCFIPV
Cytochrome P450 3A4, sequence (P08684 whole entry): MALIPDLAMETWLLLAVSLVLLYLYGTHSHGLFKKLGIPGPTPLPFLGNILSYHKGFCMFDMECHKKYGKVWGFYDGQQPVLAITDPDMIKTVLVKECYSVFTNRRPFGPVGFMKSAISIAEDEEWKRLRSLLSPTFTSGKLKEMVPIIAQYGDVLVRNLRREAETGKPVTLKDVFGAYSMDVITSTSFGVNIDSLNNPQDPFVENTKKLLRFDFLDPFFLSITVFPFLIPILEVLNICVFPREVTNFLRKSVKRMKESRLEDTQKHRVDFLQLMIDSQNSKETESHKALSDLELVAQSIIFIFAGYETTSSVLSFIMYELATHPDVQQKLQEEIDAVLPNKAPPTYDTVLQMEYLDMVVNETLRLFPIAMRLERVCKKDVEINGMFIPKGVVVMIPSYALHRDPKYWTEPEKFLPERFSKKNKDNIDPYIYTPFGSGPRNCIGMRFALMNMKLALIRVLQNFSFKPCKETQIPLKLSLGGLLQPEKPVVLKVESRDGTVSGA

For orientation: IC50 means the concentration that gives 50% inhibition. `C=CC[C@@]12C[C@H](CC=C(C)C)C(C)(C)[C@@](CC=C)(C(=O)C(C(C)=O)=C1[O-])C2=O.[Na+]`: the “fold change (FC)” value in the data set with HepG2 [1] was 5. Also, the Activity in the data set with HepaRG was less than 80%; in data set [2] it was “Dose-Dependent Effect”; in data set [3], “Not Active”; in [4], “Dose-Dependent Effect”; in the data set on A549 it was “Non-Toxic”; in the data set on HepG2 [7], “Toxic”. In addition, the Activity result in data set [9] is on record as “Not Active”; in the data set with PBMC it was “Non-Toxic”; at Cytochrome P450 2C8 [10], “Not Active”; at Cytochrome P450 2B6 it was “Not Active”; at Cytochrome P450 2C9 it was “Not Active”; with Macrophage it was “Non-Toxic”. In addition, the Activity result on Cytochrome P450 3A4, on Cytochrome P450 2C19 and at Cytochrome P450 1A2 was “Not Active” in each case. The IC50 in data set [5] was 38.8 µM; in data set [6], 6.8 µM. Moreover, the result in data set [5] and in data set [8] was Active.

Regarding `C=CC[C@@]12C(=O)C(C(=O)c3ccccc3)=C(O)[C@@](Cc3ccccc3)(C[C@H](CC=C(C)C)C1(C)C)C2=O`, the outcome in [5] was inactive.

For the compound `C=CC[C@@]12C[C@H](CC=C(C)C)C(C)(C)[C@@](CC=C)(C(=O)C(C(=O)c3ccccc3)=C1O)C2=O`, in data set [5], the result was inactive.

With `C=CC[C@@]12C(=O)C(C(=O)c3ccccc3)=C(O)[C@@](Cc3ccccc3)(C[C@H](Cc3ccccc3)C1(C)C)C2=O`, in data set [5], the outcome was inactive.

Turning to `CC(C)=CC[C@H]1C[C@@]2(CC=C(C)C)C(=O)[C@](CC=C(C)C)(C(=O)C(C(=O)C(C)C)=C2O)C1(C)C`, the outcome in [5] was inactive.

`CO[C@H]1/C=C/O[C@@]2(C)Oc3c(C)c(O)c4c(O)c(c(/C=N/N5CCN(C)CC5)c(O)c4c3C2=O)NC(=O)/C(C)=C\C=C\[C@H](C)[C@H](O)[C@@H](C)[C@@H](O)[C@@H](C)[C@H](OC(C)=O)[C@@H]1C` [RIFAMPIN]: the Activity entry in data set [2] is “Active”; at Cytochrome P450 2C8 [11], “Not Active”.

For the compound `CC(=O)C1=C(O)[C@@]2(CC=C(C)C)C[C@H](CC=C(C)C)C(C)(C)[C@@](CC=C(C)C)(C1=O)C2=O`, in data set [5], the outcome was inactive.
